20 compounds from ChEMBL document CHEMBL1125599, “Cholinergic activity of acetylenic imidazoles and related compounds” (J Med Chem, 1991) can be followed below.

In experiment [1] the test system is Mus musculus. As to the kind of experiment: ED50 value determined as oxotremorine antagonism by measuring tremors in mice (in vivo). The experiment is classed as functional.
In experiment [2] the test system is Mus musculus. As to the kind of experiment: ED50 value as cholinergic agonist by measuring salivation in mice (in vivo). The experiment is classed as functional.
The subject of experiment [3] is Mus musculus. Put plainly: ED50 value as cholinergic agonist by measuring tremors in mice (in vivo). The experiment is classed as functional.
The subject of experiment [4] is Mus musculus. As to the kind of experiment: ED50 value determined as oxotremorine antagonism by measuring lacrimation in mice (in vivo). Type of experiment: functional.
Experiment [5] has as its target Muscarinic acetylcholine receptor. Put plainly: Binding affinity to muscarinic acetylcholine receptor was determined in presence of [3H]QNB radioligand (in vitro). The experiment is classed as protein assay.
The test system of experiment [6] is Mus musculus. Put plainly: ED50 value determined as oxotremorine antagonism by measuring salivation in mice (in vivo). Type of experiment: functional.
Experiment [7] concerns Mus musculus. Put plainly: ED50 value as cholinergic agonism by measuring lacrimation in mice (in vivo). Type of experiment: functional.
Experiment [8] deals with Muscarinic acetylcholine receptor. Put plainly: Binding affinity to muscarinic acetylcholine receptor was determined in presence of [3H]OXO-M radioligand (in vitro). The experiment is classed as protein assay.
Experiment [9] concerns the target Muscarinic acetylcholine receptor (Rattus norvegicus) (UniProt P08482+P08483+P08485+P08911+P10980). As to the kind of experiment: Ratio of Ki value for QNB to that of Ki value for Oxo-M. The experiment is classed as protein assay.

Molecules are shown by their SMILES.

For `CCOC(=O)N(C)C(C)C#CCN1CCCC1` (stereo unspecified), the ED50 is above 100 mg/kg in the experiment on Mus musculus [1]; above 100 mg/kg with Mus musculus [2]; above 100 mg/kg with Mus musculus [3]; 97 mg/kg in the experiment with Mus musculus [4]; above 100 mg/kg in the experiment on Mus musculus [6]; above 100 mg/kg with Mus musculus [7]. Besides, the values for the inhibitory constant (Ki) in [5] and in [8] were 110 nM and 22 nM, respectively. Besides, the Ki ratio in experiment [9] was found to be 5.

With `Cc1cncn1CC#CCN1CCN(C)C1=O`, the ED50 was above 100 mg/kg in the experiment on Mus musculus [1]; 14 mg/kg with Mus musculus [2]; 2.5 mg/kg with Mus musculus [3]; 14 mg/kg with Mus musculus [4]; above 100 mg/kg in the experiment with Mus musculus [6]. The inhibition constant Ki in [5] was determined as 381 nM; in experiment [8], 8.6 nM. Further, in experiment [9], the Ki ratio was 44.

For the compound `CC(C#CCN(C)C)N1CCCC1=O` (stereo unspecified), the ED50 with Mus musculus [1] was above 100 mg/kg; in the experiment on Mus musculus [2], 6.6 mg/kg; in the experiment with Mus musculus [3] it was 100 mg/kg; with Mus musculus [4], above 100 mg/kg; with Mus musculus [6], above 100 mg/kg; in the experiment on Mus musculus [7], 6.6 mg/kg. In addition, the Ki in experiment [5] is recorded as 1702 nM; in experiment [8], 26.4 nM. Further, the Ki ratio in experiment [9] was 65.

For `CC(C#CCn1ccnc1)N1CCN(C)C1=O` (stereo unspecified), the median effective dose (ED50) was above 100 mg/kg in the experiment on Mus musculus [1]; 97 mg/kg in the experiment on Mus musculus [3]; 21 mg/kg in the experiment on Mus musculus [4]; 21 mg/kg with Mus musculus [6]; above 100 mg/kg in the experiment with Mus musculus [7]. The Ki was 4009 nM in experiment [5] and 120 nM in experiment [8]. Also, in [9], the Ki ratio was 33.

Turning to `Cc1cncn1CC#CCN1CCOC1=O`, the 50% effective dose (ED50) is above 100 mg/kg in the experiment on Mus musculus [1]; above 100 mg/kg in the experiment on Mus musculus [2]; 30 mg/kg in the experiment with Mus musculus [3]; 37 mg/kg in the experiment on Mus musculus [4]; 80 mg/kg in the experiment with Mus musculus [6]; above 100 mg/kg with Mus musculus [7]. The Ki was 151 nM in experiment [5] and 18 nM in experiment [8]. The Ki ratio in [9] was found to be 8.4.

As for `Cc1cncn1CC#CCN1C(=O)CCC1C` (stereo unspecified), the ED50 with Mus musculus [1] was 14.2 mg/kg; with Mus musculus [2] it was above 100 mg/kg; in the experiment on Mus musculus [3], above 100 mg/kg; in the experiment on Mus musculus [4], 0.8 mg/kg; in the experiment on Mus musculus [6] it was 1.4 mg/kg; in the experiment on Mus musculus [7] it was above 100 mg/kg. The Ki is recorded as 11.6 nM in [5] and 1.68 nM in experiment [8]. In addition, the Ki ratio in [9] was found to be 6.9.

`COC(=O)N(C)C(C)C#CCn1ccnc1` (stereo unspecified): the median effective dose (ED50) in the experiment with Mus musculus [1] is above 100 mg/kg; with Mus musculus [2], 8 mg/kg; with Mus musculus [3] it was 6.6 mg/kg; with Mus musculus [4], above 100 mg/kg; in the experiment with Mus musculus [6], above 100 mg/kg; in the experiment with Mus musculus [7], 8 mg/kg. Moreover, the inhibition constant Ki in [5] is 1355 nM; in experiment [8], 13 nM. For the same compound, in experiment [9], the Ki ratio stood at 104.

Consider `COC(=O)N(C)CC#CCn1cncc1C`, for which the ED50 in the experiment with Mus musculus [1] is above 100 mg/kg; in the experiment on Mus musculus [3], 4.5 mg/kg; with Mus musculus [4], 3 mg/kg; in the experiment with Mus musculus [6] it was 5.4 mg/kg; in the experiment with Mus musculus [7], above 100 mg/kg. The Ki turned out to be 1001 nM in [5] and 36 nM in [8]. Moreover, the Ki ratio in [9] came to 28.

Turning to `O=C1OCCN1CC#CCn1ccnc1`, the ED50 with Mus musculus [1] is above 100 mg/kg; with Mus musculus [2], 2 mg/kg; in the experiment with Mus musculus [3], 3 mg/kg; with Mus musculus [4] it was above 100 mg/kg; in the experiment on Mus musculus [6], above 100 mg/kg; in the experiment on Mus musculus [7] it was 3 mg/kg. Moreover, the inhibition constant Ki is on record as 929 nM in [5] and 5.7 nM in experiment [8]. For the same compound, in experiment [9], the Ki ratio was 164.

On to `Cc1nccn1CC#CCN1CCCC1=O`, for which the ED50 in the experiment on Mus musculus [1] is above 100 mg/kg; in the experiment with Mus musculus [2], 0.37 mg/kg; with Mus musculus [3], 0.25 mg/kg; in the experiment with Mus musculus [4], 0.45 mg/kg; with Mus musculus [6], above 100 mg/kg. The Ki is reported as 3.8 nM in experiment [5] and 0.3 nM in experiment [8]. Besides, the Ki ratio in [9] amounted to 13.

Consider `Cc1cn(CC#CCN2CCCC2=O)cn1`, for which the 50% effective dose (ED50) in the experiment on Mus musculus [1] is above 100 mg/kg; with Mus musculus [2], above 100 mg/kg; with Mus musculus [4] it was 14.2 mg/kg; with Mus musculus [6], 37 mg/kg; in the experiment with Mus musculus [7] it was above 100 mg/kg. Besides, the Ki in experiment [5] came to 377 nM; in experiment [8], 10.3 nM. Besides, the Ki ratio in experiment [9] turned out to be 37.

For `CN(C)CC#CCN(C)C(=O)N(C)C`, the median effective dose (ED50) in the experiment on Mus musculus [1] was above 100 mg/kg; with Mus musculus [2], 8 mg/kg; in the experiment on Mus musculus [3], 2 mg/kg; with Mus musculus [4], above 100 mg/kg; with Mus musculus [6], above 100 mg/kg; with Mus musculus [7], 6.6 mg/kg. Moreover, the inhibitory constant (Ki) in [5] was above 10000 nM; in [8], 16 nM.

Consider `CCOC(=O)N(C)CC#CCn1ccnc1`, for which the ED50 in the experiment with Mus musculus [1] was above 100 mg/kg; in the experiment on Mus musculus [2] it was above 100 mg/kg; in the experiment with Mus musculus [3] it was above 100 mg/kg; with Mus musculus [4] it was 97 mg/kg; in the experiment on Mus musculus [6] it was 97 mg/kg; in the experiment on Mus musculus [7], above 100 mg/kg. Further, the Ki is above 10000 nM in experiment [5] and 206 nM in [8].

With `CC(=O)N(C)CC#CCn1cncc1C`, the ED50 with Mus musculus [1] is above 100 mg/kg; in the experiment on Mus musculus [2], 45 mg/kg; with Mus musculus [3], 5.4 mg/kg; with Mus musculus [4], 6.6 mg/kg; with Mus musculus [6] it was above 100 mg/kg. Moreover, the Ki worked out at 172 nM in experiment [5] and 3.61 nM in experiment [8]. Besides, the Ki ratio in experiment [9] was 48.

On to `O=C1CCCN1CC#CCn1cnc2ccccc21`, for which the median effective dose (ED50) was above 100 mg/kg in the experiment on Mus musculus [1]; above 100 mg/kg with Mus musculus [2]; above 100 mg/kg with Mus musculus [3]; 80 mg/kg with Mus musculus [4]; above 100 mg/kg in the experiment with Mus musculus [6]; above 100 mg/kg in the experiment on Mus musculus [7]. For the same compound, the Ki in experiment [5] and in experiment [8] was above 10000 nM each time.

Consider `O=C1NCCN1CC#CCN1CCCC1`, for which the median effective dose (ED50) in the experiment with Mus musculus [1], in the experiment with Mus musculus [2], with Mus musculus [4], with Mus musculus [6] and with Mus musculus [7] was above 3 mg/kg in each case. For the same compound, the Ki in experiment [5] was found to be 800 nM; in experiment [8], 13 nM. The Ki ratio in experiment [9] amounted to 62.

With `Cc1cncn1CC#CCn1ccn(C)c1=O`, the 50% effective dose (ED50) was above 100 mg/kg with Mus musculus [1]; 100 mg/kg in the experiment with Mus musculus [3]; 8 mg/kg with Mus musculus [4]; 22 mg/kg with Mus musculus [6]; above 100 mg/kg in the experiment with Mus musculus [7]. For the same compound, the inhibition constant Ki in [5] came out at 614 nM; in [8], 39 nM. The Ki ratio in experiment [9] came out at 16.

With `COC(=O)N(C)CC#CCN(C)C`, the ED50 is above 30 mg/kg in the experiment with Mus musculus [1]; 14.3 mg/kg in the experiment on Mus musculus [2]; 17.3 mg/kg in the experiment with Mus musculus [3]; above 30 mg/kg in the experiment with Mus musculus [4]; above 30 mg/kg in the experiment on Mus musculus [6]; 9.7 mg/kg in the experiment with Mus musculus [7]. Also, the Ki in experiment [5] is listed as above 10000 nM; in experiment [8], 19 nM.

For `CCOC(=O)N(C)C(C)C#CCn1ccnc1` (stereo unspecified), the ED50 in the experiment with Mus musculus [1] is above 100 mg/kg; in the experiment on Mus musculus [2] it was above 100 mg/kg; with Mus musculus [3], above 100 mg/kg; in the experiment on Mus musculus [4], 54 mg/kg; in the experiment with Mus musculus [6] it was 66 mg/kg; with Mus musculus [7], above 100 mg/kg. The Ki in experiment [5] was above 10000 nM; in [8], 273 nM.

With `O=C1CCCN1CC#CCn1cncn1`, the ED50 with Mus musculus [1], in the experiment on Mus musculus [2], in the experiment with Mus musculus [3], in the experiment on Mus musculus [4], with Mus musculus [6] and with Mus musculus [7] was above 100 mg/kg in each case. Further, the inhibition constant Ki in experiment [5] and in experiment [8] was above 10000 nM each time.
